We go through 13 compounds from patent US9580411B2, “Substituted sulfonamide compounds” (Hoffmann-La Roche Inc., priority 2012, dated 2017).

Structures are written as SMILES.

T1 sequence (O75762 whole entry): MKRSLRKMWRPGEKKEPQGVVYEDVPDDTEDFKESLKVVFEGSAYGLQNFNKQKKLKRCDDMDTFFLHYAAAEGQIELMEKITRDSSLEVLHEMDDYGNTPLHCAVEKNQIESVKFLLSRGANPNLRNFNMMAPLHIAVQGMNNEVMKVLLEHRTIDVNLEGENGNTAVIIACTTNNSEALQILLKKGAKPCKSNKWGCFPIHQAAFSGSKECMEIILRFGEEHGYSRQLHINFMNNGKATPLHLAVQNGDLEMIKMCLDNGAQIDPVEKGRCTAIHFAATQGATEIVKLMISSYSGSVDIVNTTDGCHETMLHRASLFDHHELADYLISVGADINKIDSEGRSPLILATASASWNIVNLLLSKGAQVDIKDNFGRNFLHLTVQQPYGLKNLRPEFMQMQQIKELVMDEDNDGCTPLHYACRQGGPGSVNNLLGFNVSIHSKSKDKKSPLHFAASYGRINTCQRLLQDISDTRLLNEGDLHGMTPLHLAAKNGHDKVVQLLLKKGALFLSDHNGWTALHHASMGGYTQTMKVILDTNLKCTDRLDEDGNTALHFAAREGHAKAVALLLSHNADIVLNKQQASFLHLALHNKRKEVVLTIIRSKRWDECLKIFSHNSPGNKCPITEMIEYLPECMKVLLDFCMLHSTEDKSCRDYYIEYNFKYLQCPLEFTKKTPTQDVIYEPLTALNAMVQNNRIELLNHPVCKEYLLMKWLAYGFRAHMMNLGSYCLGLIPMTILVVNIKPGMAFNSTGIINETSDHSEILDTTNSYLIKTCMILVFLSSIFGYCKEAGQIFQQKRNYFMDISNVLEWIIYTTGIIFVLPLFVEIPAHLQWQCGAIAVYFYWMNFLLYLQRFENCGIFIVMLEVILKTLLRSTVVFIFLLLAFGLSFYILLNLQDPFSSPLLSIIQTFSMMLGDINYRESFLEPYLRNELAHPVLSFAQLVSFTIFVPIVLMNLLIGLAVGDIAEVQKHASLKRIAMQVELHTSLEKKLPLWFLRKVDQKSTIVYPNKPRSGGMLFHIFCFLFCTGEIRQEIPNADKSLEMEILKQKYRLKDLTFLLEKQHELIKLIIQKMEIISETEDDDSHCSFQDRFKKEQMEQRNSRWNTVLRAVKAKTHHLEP

One assay deals with T1, hTRPA1 (Homo sapiens (Human), UniProt O75762). Nature of the assay: Dose response calcium flux assay (FLIPR), ChanTest hTRPA1-CHO stably transfected cell line. In kind it is cell-based. As to conditions: CHO-K1 Tet-On human TRPA1 cells, cinnamaldehyde agonist (final 100 uM). In a few lines:
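Doxycycline-induced CHO-K1 Tet-On hTRPA1 cells, assayed 24 h post induction, Cal-3 dye loaded. Compounds (top 20 μM 3-fold or 30 μM 2-fold, 11 steps) preincubated 30 min at room temperature, then 100 μM cinnamaldehyde (final) added. FLIPR peak fluorescence increase measured against per-well baseline.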
In general terms: Calcium flux is commonly read through the fluorescence of an indicator in the cells.
Broadly, the IC50 is the midpoint of a concentration-inhibition curve. In the case of `CC(C)N(CC(=O)NCc1cccc(-c2ccc(C(F)(F)F)nn2)c1)S(=O)(=O)c1ccc(F)cc1` [Example 66, 2-[(4-Fluoro-benzenesulfonyl)-isopropyl-amino]-N-[3-(6-trifluoromethyl-pyridazin-3-yl)-benzyl]-acetamide], the IC50 came out at 170 nM.

With `O=C(CN(C1COC1)S(=O)(=O)c1ccc(F)cc1)NCc1cccc(-c2ccc(C(F)(F)F)cc2)c1` [Example 60, 2-[(4-Fluoro-benzenesulfonyl)-oxetan-3-yl-amino]-N-(4′-trifluoromethyl-biphenyl-3-ylmethyl)-acetamide], the IC50 worked out at 200 nM.

`CC(C)N(CC(=O)NCc1cc(-c2ccc(C(F)(F)F)nc2)ncn1)S(=O)(=O)c1ccc(F)cc1` [Example 61, 2-[(4-Fluoro-benzenesulfonyl)-isopropyl-amino]-N-[6-(6-trifluoromethyl-pyridin-3-yl)-pyrimidin-4-ylmethyl]-acetamide]: the IC50 was determined as 140 nM.

Another assay deals with T1, hTRPA1. Nature of the assay: IC50 determination on human TRPA1 channel, Hamamatsu FDSS calcium fluorescence, CHO cells. The class given is cell-based. As to conditions: CHO cells expressing human TRPA1; block of cinnamaldehyde induced calcium influx; Hill coefficient fixed to 1.5; read-out: hTRPA1 AUC IC50. On the procedure: IC50s (effective concentration) of compounds on the human TRPA1 channel were determined using a Hamamatsu FDSS fluorescence plate reader. CHO cells expressing human TRPA1 were plated into 384-well plates, incubated overnight at 37° C., and loaded with BD calcium indicator dye for 1 hr at 37° C. followed by 15 minutes at room temperature. The assay buffer was Hank's Balanced Salt Solution (HBSS) containing 20 mM HEPES (pH readjusted to 7.4) along with 0.02% BSA.
Following dye load and plate cool down, compounds were added to the cells using the FDSS while monitoring fluorescence to determine whether any of the test compounds have TRPA1 agonist activity. Plates were then incubated with compound for 20 minutes at room temperature prior to adding agonist. Following this incubation, […] cinnamaldehyde was added to all wells of the plate and block of this cinnamaldehyde induced calcium influx was measured.
Fixing the Hill coefficient will generally reduce variability of the IC50 determination. The IC50s were examined by eye to make sure the MIN and MAX points were set correctly prior to validation of the results.
Turning to `CC(C)N(CC(=O)NCc1cccc(-c2ccc(C(F)(F)F)cc2)c1)S(=O)(=O)c1ccn(C)n1` [Example 82, 2-(N-Isopropyl-1-methyl-1H-pyrazole-3-sulfonamido)-N-((4′-(trifluoromethyl)biphenyl-3-yl)methyl)acetamide], the IC50 was determined as 2400 nM.

With `[2H]C([2H])(C(=O)NCc1cc(-c2ccc(C(F)(F)F)nc2)ncn1)N(C(C)C)S(=O)(=O)c1ccc(F)cc1` [Example 83, 2,2-Dideuterio-2-(4-fluoro-N-isopropylphenylsulfonamido)-N-((6-(6-(trifluoromethyl)pyridin-3-yl)pyrimidin-4-yl)methyl)acetamide], the IC50 was 58 nM.

For `CC(C)N(CC(=O)NCc1cc(N2CCC(C(F)(F)F)CC2)ncn1)S(=O)(=O)c1ccc(F)cc1` [Example 80, 2-(4-Fluoro-N-isopropylphenylsulfonamido)-N-((6-(4-(trifluoromethyl)piperidin-1-yl)pyrimidin-4-yl)methyl)acetamide], the half-maximal inhibitory concentration (IC50) amounted to 251 nM.

In the case of `CC(C)N(CC(=O)NCc1cccc(C2CC2)c1)S(=O)(=O)c1ccc(F)cc1` [Example 78, N-(3-cyclopropylbenzyl)-2-(4-fluoro-N-isopropylphenylsulfonamido)acetamide], the half-inhibitory concentration (IC50) came out at 1000 nM.

On to `CC(C)N(CC(=O)NCc1cc(N2CCC(F)(F)CC2)ncn1)S(=O)(=O)c1ccc(F)cc1` [Example 81, N-((6-(4,4-Difluoropiperidin-1-yl)pyrimidin-4-yl)methyl)-2-(4-fluoro-N-isopropylphenylsulfonamido)acetamide], for which the IC50 was 3000 nM.

Regarding `CC(C)N(C1(C(=O)NCc2cc(-c3ccc(C(F)(F)F)nc3)ncn2)CC1)S(=O)(=O)c1ccc(F)cc1` [Example 84, 1-(4-Fluoro-N-isopropylphenylsulfonamido)-N-((6-(6-(trifluoromethyl)pyridin-3-yl)pyrimidin-4-yl)methyl)cyclopropanecarboxamide], the IC50 was 29 nM.

Regarding `O=C(CN(c1ccc(F)cc1)S(=O)(=O)c1ccc(F)cc1)NCc1cc(-c2ccc(C(F)(F)F)nc2)ncn1` [Example 86, 2-(4-fluoro-N-(4-fluorophenyl)phenylsulfonamido)-N-((6-(6-(trifluoromethyl)pyridin-3-yl)pyrimidin-4-yl)methyl)acetamide], the IC50 amounted to 9 nM.

In the case of `CC(C)N(CC(=O)NCc1cccc(-c2cnc(N3CCC[C@@H]3C)nc2)c1)S(=O)(=O)c1ccc(F)cc1` (single isomer, unassigned) [79-(S)], the IC50 worked out at 38 nM.

In the case of `CC(C)N(CC(=O)NCc1cccc(-c2cnc(N3CCC[C@H]3C)nc2)c1)S(=O)(=O)c1ccc(F)cc1` (single isomer, unassigned) [79-(R)], the IC50 is 55 nM.

Regarding `CC(C)N(CC(=O)NCc1cccc(N2CCCC2)c1)S(=O)(=O)c1ccc(F)cc1` [Example 77, 2-(4-fluoro-N-isopropylphenylsulfonamido)-N-(3-(pyrrolidin-1-yl)benzyl)acetamide], the IC50 is 883 nM.
